Data as given in patent US9801851B2, “Methods and compositions for the treatment of BCR-ABL positive lymphoblastic leukemias” (ST. JUDE CHILDREN'S RESEARCH HOSPITAL, priority 2012, dated 2017).
Where two headings read alike, the source gives them in different places.

How the values were obtained:
Arf−/− BCR-ABL^WT LICs [1] = test: LIC growth inhibition, CellTiter-Glo (CTG) assay, 72 h; format: cell-based, murine; details: for effect of cytokine on dasatinib potency: 72-h dasatinib exposure in presence of increasing concentrations of cytokine
From the text: Replication-defective mouse stem cell virus (MSCV) retroviral vectors co-expressing either the wild-type (WT) allele of human p185^BCR-ABL or mutant BCR-ABL alleles p185^T315I or p185^F317L, and either green fluorescent protein (GFP) or luciferase, were packaged into replication-incompetent ecotropic virions. Whole bone marrow cell suspensions from Arf^−/− young adult mice were infected to produce Arf^−/− p185+ pre-B cells. […] Prior to use in any assays, Arf^−/− p185^WT and Arf^−/− p185^T315I pre-B cells (BCR-ABL^WT leukemia initiating cells (LICs) and BCR-ABL^T315I LICs, respectively) were thawed and allowed to recover in BCM10 for 3 days.
The maximum dimethyl sulfoxide (DMSO) concentration tolerated by LICs in culture was determined to be 0.2% (by volume) and was maintained at ≦0.1% (by volume) in all subsequent work. […] Both cell types were plated at multiple cell dilutions (n=3 for each condition, time=0 h) in 6-well plates and serially followed daily for 5 days to evaluate absolute viable cell count, total viability, doubling times, and total population doublings, using the Beckman Coulter cell counter (trypan blue staining) and fluorescence-activated cell sorting (FACS) analysis in parallel. […] FACS cell-cycle analysis confirmed that a population doubling time less than 14 h was sufficient to maintain cells in exponential growth (>50% cells in S-phase).
After a 72 h drug challenge, LIC growth was measured by the 3 cellular readouts: CellTiter-Glo® (CTG) assay (ATP content), MTS (3-(4,5-dimethylthiazol-2-yl)-5-(3-carboxymethoxyphenyl)-2-(4-sulfophenyl)-2H-tetrazolium) assay (viability), and high-throughput flow cytometry (total viability and viable cell counts by DAPI exclusion). Measured assay readouts at various drug concentrations (x-axis) were normalized to DMSO-treated LICs and graphed (+/−sd) on y-axis.

[2] = tested on: human Ph+ ALL SUPB15 cells; test: Cell viability, MTS assay, 72 h; format: cell-based
Protocol: Drug delivery to cell suspensions was accomplished with a V & P Scientific (San Diego, Calif.) pin. For murine-human comparisons, human SUP-B15 Ph+ ALL cells (DSMZ cell culture collection, Germany) in McCoy's media containing 20% fetal calf serum and penicillin/streptomycin (Invitrogen, Carlsbad, Calif.), were plated at 12,500 cells in 25 μL per well in black clear-bottom 384-well microtiter plates. Drugs were transferred by pin-transfer. After 72 h incubation at 37° C., 20% (by volume) MTS assay reagent (CellTiter 96 Aqueous One Solution, Promega, Madison, Wis.) was added, microtiter plates were incubated for 75 min at 37° C., and read colorimetrically at 490 nm.

[3] = In vivo toxicity studies of DHA by oral gavage; details: repeated single doses of 300 mg/kg, 5 days/week
Protocol: In toxicity studies, DHA was ranged up to 300 mg/kg as a single or split dose for 5 days/week over a six week time period. […] During therapeutic studies, animal weights were monitored daily to ensure no significant body weight reductions.

Arf−/− BCR-ABL^WT LICs [4] = format: in vivo

## C[C@@H]1CC[C@H]2[C@@H](C)C(=O)O[C@@H]3O[C@@]4(C)CC[C@@H]1[C@]32OO4 [artemisinin]
Arf−/− BCR-ABL^WT LICs [1]; BCR-ABL^WT and BCR-ABL^T315I LICs, 72 h, absence or presence of 1 ng/mL murine IL7
  anti-LIC potency: lower than that of artesunate or DHA

## TSLP: thymic stromal lymphopoietin, IL7-like cytokine
Arf−/− BCR-ABL^WT LICs [1]
  effect of cytokine on dasatinib potency: confer some resistance

## C[C@@H]1CCC2[C@@H](C)[C@@H](O)O[C@@H]3OC4(C)CC[C@@H]1[C@@]23OO4 (some centres unmarked) [DHA, dihydroartemisinin]
[2]
  killing of human Ph+ ALL cell line: actively kill
[3]
  toxicity findings: no significant weight loss, lethargy, seizures or deaths
Arf−/− BCR-ABL^WT LICs [4]; 200 mg/kg
  efficacy alone in high-burden leukemia model: completely ineffective
Arf−/− BCR-ABL^WT LICs [4]; 300 mg/kg
  efficacy alone in high-burden leukemia model: poorly effective
Arf−/− BCR-ABL^WT LICs [4]; IL7+/+ host mice, low-burden 2×10^3 LICs, 100, 200, 300 mg/kg once daily 5 days/week from day 3
  survival benefit, monotherapy: dose-dependent survival benefit

## IL4: recombinant murine hematopoietic cytokine
Arf−/− BCR-ABL^WT LICs [1]
  effect of cytokine on dasatinib potency: confer some resistance

## C[C@H]1[C@H](OC(=O)CCC(=O)O)O[C@@H]2O[C@@]3(C)CC[C@H]4[C@H](C)CC[C@@H]1[C@@]24OO3 [artesunate]
[2]
  killing of human Ph+ ALL cell line: actively kill

## TGF-β
Arf−/− BCR-ABL^WT LICs [1]
  effect of cytokine on dasatinib potency: enhance dasatinib activity

B1: IL7: recombinant murine cytokine, leukemia-microenvironment host factor (protein, UniProt P10168 26-154, looked up)
Interleukin-7: ECHIKDKEGKAYESVLMISIDELDKMTGTDSNCPNNEPNFFRKHVCDDTKEAAFLNRAARKLKQFLKMNISEEFNVHLLTVSQGTQTLVNCTSKEEKNVKEQKKNDACFLKRLLREIKTCWNKILKGSI
Arf−/− BCR-ABL^WT LICs [1]
  effect of cytokine on dasatinib potency: strongest protection against dasatinib
